Inhibition and IC50 data for three compounds are collected here from patent US20100240641A1, “Aldosterone Synthase and/or 11B-hydroxylase Inhibitors” (priority 2006, published 2010).

By inhibition is commonly meant the change of the read-out against control, counted positive when it falls. As a reminder, the IC50 is the concentration at which inhibition is half-maximal.

Assay [1] concerns the target T1, CYP11B1 (Homo sapiens, UniProt P15538).
T1 construct: Thus, the NCl-H295R cells have Cyp11 B1 (steroid 11 p-hydroxylase); host or cells: NCI-H295R
T1 sequence (P15538 25-503): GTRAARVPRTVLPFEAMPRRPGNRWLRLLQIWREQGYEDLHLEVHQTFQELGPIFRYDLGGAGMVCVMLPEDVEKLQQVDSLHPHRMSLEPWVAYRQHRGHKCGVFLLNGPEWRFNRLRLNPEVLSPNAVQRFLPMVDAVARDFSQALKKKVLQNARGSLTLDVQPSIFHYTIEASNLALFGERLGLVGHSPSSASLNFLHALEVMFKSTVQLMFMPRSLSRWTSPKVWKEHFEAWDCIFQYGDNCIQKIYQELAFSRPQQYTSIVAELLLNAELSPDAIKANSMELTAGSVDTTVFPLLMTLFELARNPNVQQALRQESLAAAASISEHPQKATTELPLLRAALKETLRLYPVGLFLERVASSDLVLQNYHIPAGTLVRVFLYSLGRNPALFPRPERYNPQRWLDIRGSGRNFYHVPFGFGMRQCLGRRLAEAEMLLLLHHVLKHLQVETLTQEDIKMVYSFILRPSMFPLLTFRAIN
The assay can be described thus: In vitro CYP11B1 inhibition: steroid release from NCI-H295R cells. The assay is classed as cell-based. Particulars: 10 nM compound, read-out: 11B1 % Inhibition @ 10 nM. The text has this:
The in vitro inhibitory activities for CYP11B1 can be determined by the following assay.
The cell line NCI-H295R was originally isolated from an adrenocortical carcinoma and has been characterized in the literature through the stimulable secretion of steroid hormones and the presence of the enymes essential for steroidogenesis. Thus, the NCl-H295R cells have Cyp11 B1 (steroid 11 p-hydroxylase). The cells show the physiological property of zonally undifferentiated human foetal adrenocortical cells which, however, have the capacity to produce the steroid hormones which are formed in the three, phenotypically distinguishable zones in the adult adrenal cortex. […]
The excretion of aldosterone, cortisol, corticosterone and estradiol/estrone into the culture medium can be detected and quantified by commercially available, specific monoclonal antibodies in radioimmunoassays in accordance with the manufacturer's instructions.
Inhibition of the release of certain steroids can be used as a measure of the respective enzyme inhibition by the added test compounds. The dose-dependent inhibition of enzymic activity by a compound is calculated by means of an inhibition plot which is characterized by an IC50. […]

Assay [2] deals with T2, aldosterone synthase (Homo sapiens, UniProt P19099).
T2 construct: host or cells: NCI-H295R
T2 sequence (P19099 25-503): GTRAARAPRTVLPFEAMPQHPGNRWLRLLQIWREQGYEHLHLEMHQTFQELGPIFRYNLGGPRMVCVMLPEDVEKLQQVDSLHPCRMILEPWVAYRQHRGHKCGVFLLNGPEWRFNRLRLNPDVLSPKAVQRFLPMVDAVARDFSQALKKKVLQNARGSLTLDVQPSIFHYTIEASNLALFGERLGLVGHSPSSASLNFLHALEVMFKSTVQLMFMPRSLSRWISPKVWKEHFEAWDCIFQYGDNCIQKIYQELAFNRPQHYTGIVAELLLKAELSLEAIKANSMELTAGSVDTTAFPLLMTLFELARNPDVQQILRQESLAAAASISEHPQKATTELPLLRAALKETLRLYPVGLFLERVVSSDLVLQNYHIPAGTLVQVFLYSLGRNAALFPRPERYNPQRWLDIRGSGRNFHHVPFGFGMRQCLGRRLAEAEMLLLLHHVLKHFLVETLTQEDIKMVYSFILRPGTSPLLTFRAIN
The assay can be described thus: In vitro aldosterone synthase inhibition: aldosterone production in Ang II-stimulated NCI-H295R cells. The assay is classed as cell-based. Conditions: read-out: AS IC50. The text has this:
In particular, the aldosterone synthase inhibitory activities in vitro can be determined by the following assay.
Human adrenocortical carcinoma NCI-H295R cell line is obtained from American Type Culture Collection (Manassas, Va.). Insulin/transferrin/selenium (ITS)-A supplement (100×), DMEM/F-12, antibiotic/antimycotic (100×), and fetal calf serum (FCS) are purchased from Gibco (Grand Island, N.Y.). Anti-mouse PVT scintillation proximity assay (SPA) beads and NBS 96-well plates are obtained from Amersham (Piscataway, N.J.) and Corning (Acton, Mass.), respectively. Solid black 96-well flat bottom plates were purchased from Costar (Corning; NY). Aldosterone and angiotensin (Ang II) are purchased from Sigma (St. Louis, Mo.). D[1,2,6,7-^3H(N)]aldosterone was acquired from PerkinElmer (Boston, Mass.). Nu-serum was a product of BD Biosciences (Franklin Lakes, N.J.). The NADPH regenerating system, dibenzylfluorescein (DBF), and human aromatase Supersomes® are obtained from Gentest (Woburn, Mass.). […]
Measurement of aldosterone activity can also be performed using a 96-well plate format. […] The amount of aldosterone in each sample is calculated by comparing with a standard curve generated using known quantities of the hormone.

Turning to `CCC1(c2ccc(C)cc2OC)C(=O)N(Cc2ccc(F)cc2)Cc2cncn21` (stereo not drawn) [Compound 8, 5-(2-Methoxy-4-methyl-phenyl)-5-ethyl-7-(4-fluoro-benzyl)-7,8-dihydro-imidazo[1,5-a]pyrazin-6-one], in assay [1], the inhibition at 0.01 µM is 98%.

In the case of `CCC1(c2ccc(C#N)cc2OC)C(=O)N(Cc2ccc(Cl)cc2)Cc2cncn21` (stereo not drawn) [Compound 1, 4-[7-(4-Chloro-benzyl)-5-ethyl-6-oxo-5,6,7,8-tetrahydro-imidazo[1,5-a]pyrazin-5-yl]-3-methoxy-benzonitrile], in assay [2], the IC50 was determined as 12 nM.

`CCC1(c2ccc(C#N)cc2F)C(=O)N(Cc2ccc(F)cc2)Cc2cncn21` (stereo not drawn) [Compound 7, 4-[5-Ethyl-7-(4-fluoro-benzyl)-6-oxo-5,6,7,8-tetrahydro-imidazo[1,5-a]pyrazin-5-yl]-3-fluoro-benzonitrile]: in assay [1], the inhibition at 0.01 µM stood at 100%.
